{"source": "patent US20230278972A1", "about": "“SUBSTITUTED HALOALKYL SULFONANILIDE HERBICIDES” (FMC Corporation, priority 2020, published 2023)", "format_in_all_cases": "in vivo", "key": {"kochia (Bassia scoparia) [1]": {"test_system": "kochia (Bassia scoparia)", "assay": "Test A1 preemergence, kochia", "how_it_was_run": "(§1)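 Seeds were first planted into a blend of loam soil and sand and given a preemergence directed soil spray. In parallel, pots of the same soil were sown for postemergence application once plants reached 2 to 10 cm and the one- to two-leaf stage. Both used surfactant-containing non-phytotoxic solvent formulations.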"}, "[2]": {"test_system": "blackgrass (Alopecurus myosuroides)", "assay": "Test A1 preemergence, blackgrass", "how_it_was_run": "as §1"}, "corn (Zea mays) [3]": {"test_system": "corn (Zea mays)", "assay": "Test A1 preemergence, corn", "how_it_was_run": "as §1"}, "[4]": {"test_system": "ragweed (common ragweed, Ambrosia artemisiifolia)", "assay": "Test A1 preemergence, ragweed", "how_it_was_run": "as §1"}, "[5]": {"test_system": "Oat, Wild (wild oat, Avena fatua)", "assay": "Test A1 postemergence, Oat, Wild", "conditions": "Postemergence", "how_it_was_run": "as §1"}, "soybean (Glycine max) [6]": {"test_system": "soybean (Glycine max)", "assay": "Test A1 preemergence, soybean", "how_it_was_run": "as §1"}, "corn (Zea mays) [7]": {"test_system": "corn (Zea mays)", "assay": "Test A1 postemergence, corn", "conditions": "Postemergence", "how_it_was_run": "as §1"}, "[8]": {"test_system": "Pigweed, Palmer (palmer amaranth, palmer pigweed, Amaranthus palmeri)", "assay": "Test A1 preemergence, Pigweed, Palmer", "how_it_was_run": "as §1"}, "[9]": {"test_system": "ragweed (common ragweed, Ambrosia artemisiifolia)", "assay": "Test A1 postemergence, ragweed", "conditions": "Postemergence", "how_it_was_run": "as §1"}, "soybean (Glycine max) [10]": {"test_system": "soybean (Glycine max)", "assay": "Test A1 postemergence, soybean", "conditions": "Postemergence", "how_it_was_run": "(§2)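 Plants grown in pots of loam/sand mix; preemergence = soil-directed spray on seeded pots, postemergence = spray at 1–2 leaves, height 2–10 cm; test chemicals formulated in non-phytotoxic solvent with surfactant.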"}, "[11]": {"test_system": "ducksalad (Heteranthera limosa)", "assay": "Test B1 flooded paddy test, ducksalad", "conditions": "250 g ai/ha, Flood, applied to paddy water, 2-leaf stage, visually evaluated after 10 to 14 days", "source_text": "(§3) A dash (-) response means no test result."}, "[12]": {"test_system": "Foxtail, Giant (giant foxtail, Setaria faberi)", "assay": "Test A1 preemergence, Foxtail, Giant", "how_it_was_run": "as §1"}, "[13]": {"test_system": "wheat (Triticum aestivum)", "assay": "Test A1 preemergence, wheat", "how_it_was_run": "as §1"}, "[14]": {"test_system": "Ryegrass, Italian (Italian ryegrass, Lolium multiflorum)", "assay": "Test A1 postemergence, Ryegrass, Italian", "conditions": "Postemergence", "how_it_was_run": "as §2"}, "rice (Oryza sativa)": {"test_system": "rice (Oryza sativa)", "assay": "Test B1 flooded paddy test, rice", "conditions": "250 g ai/ha, Flood, applied to paddy water, 2-leaf stage, visually evaluated after 10 to 14 days", "source_text": "as §3"}, "[15]": {"test_system": "barnyardgrass (Echinochloa crus-galli)", "assay": "Test B1 flooded paddy test, barnyardgrass", "conditions": "250 g ai/ha, Flood, applied to paddy water, 2-leaf stage, visually evaluated after 10 to 14 days", "source_text": "as §3"}, "[16]": {"test_system": "blackgrass (Alopecurus myosuroides)", "assay": "Test A1 postemergence, blackgrass", "conditions": "Postemergence, 0 to 100 scale (0 no effect, 100 complete control)", "how_it_was_run": "as §2"}, "[17]": {"test_system": "Ryegrass, Italian (Italian ryegrass, Lolium multiflorum)", "assay": "Test A1 preemergence, Ryegrass, Italian", "how_it_was_run": "as §1"}, "[18]": {"test_system": "goosegrass (Eleusine indica)", "assay": "Test A1 postemergence, goosegrass", "conditions": "Postemergence", "how_it_was_run": "as §2"}, "[19]": {"test_system": "wheat (Triticum aestivum)", "assay": "Test A1 postemergence, wheat", "conditions": "Postemergence", "how_it_was_run": "as §2"}, "[20]": {"test_system": "Oat, Wild (wild oat, Avena fatua)", "assay": "Test A1 preemergence, Oat, Wild", "how_it_was_run": "as §1"}, "kochia (Bassia scoparia) [21]": {"test_system": "kochia (Bassia scoparia)", "assay": "Test A1 postemergence, kochia", "conditions": "Postemergence", "how_it_was_run": "as §2"}, "[22]": {"test_system": "Pigweed, Palmer (palmer amaranth, palmer pigweed, Amaranthus palmeri)", "assay": "Test A1 postemergence, Pigweed, Palmer", "conditions": "Postemergence", "how_it_was_run": "as §1"}, "[23]": {"test_system": "Foxtail, Giant (giant foxtail, Setaria faberi)", "assay": "Test A1 postemergence, Foxtail, Giant", "conditions": "Postemergence", "how_it_was_run": "as §2"}, "[24]": {"test_system": "goosegrass (Eleusine indica)", "assay": "Test A1 preemergence, goosegrass", "how_it_was_run": "as §1"}, "[25]": {"test_system": "horseweed (Erigeron canadensis)", "assay": "Test A1 postemergence, horseweed", "conditions": "Postemergence", "source_text": "Seeds of plant species selected from, blackgrass (Alopecurus myosuroides), corn (Zea mays), Foxtail, Giant (giant foxtail, Setaria faberi), goosegrass (Eleusine indica), kochia (Bassia scoparia), Oat, Wild (wild oat, Avena fatua), Pigweed, Palmer (palmer amaranth, palmer pigweed, Amaranthus palmeri), ragweed (common ragweed, Ambrosia artemisiifolia), Ryegrass, Italian (Italian ryegrass, Lolium multiflorum), soybean (Glycine max), and wheat (Triticum aestivum) were planted into a blend of loam soil and sand and treated preemergence with a directed soil spray using test chemicals formulated in a non-phytotoxic solvent mixture which included a surfactant. At the same time, plants selected from these crop and weed species and also galium (catchweed bedstraw, Galium aparine) and horseweed (Erigeron canadensis) were planted in pots containing the same blend of loam soil and sand and treated with postemergence applications of test chemicals formulated in the same manner. Plants ranged in height from 2 to 10 cm and were in the one- to two-leaf stage for the postemergence treatment. […] A dash (-) response means no test result."}, "[26]": {"test_system": "galium (catchweed bedstraw, Galium aparine)", "assay": "Test A1 postemergence, galium", "conditions": "Postemergence", "how_it_was_run": "as §2"}, "[27]": {"conditions": "31 g ai/ha, 0 to 100 scale (0 no effect, 100 complete control)"}, "[28]": {"conditions": "125 g ai/ha, 0 to 100 scale, 0 no effect, 100 complete control"}, "[29]": {"conditions": "31 g ai/ha, 0 to 100 scale (0 no effect, 100 complete control), 10 days"}}}
{"compound": "Cc1cc(C)c(C2=NOC(OCC(C)C)C2)cc1NS(=O)(=O)C(F)(F)F", "note": "(stereo not drawn) [Compound 322]", "values": [{"measurement": "Plant response rating, Kochia", "setting": "kochia (Bassia scoparia) [1]; [27]", "value": 0}, {"measurement": "Plant response rating, Kochia", "setting": "kochia (Bassia scoparia) [1]; [28]", "value": 20}, {"measurement": "Plant response rating, Blackgrass", "setting": "[2]; [27]", "value": 0}, {"measurement": "Plant response rating, Blackgrass", "setting": "[2]; [28]", "value": 70}, {"measurement": "Plant response rating, Corn", "setting": "corn (Zea mays) [3]; [27]", "value": 0}, {"measurement": "Plant response rating, Corn", "setting": "corn (Zea mays) [3]; [28]", "value": 30}, {"measurement": "Plant response rating, Ragweed", "setting": "[4]; [27]", "value": 20}, {"measurement": "Plant response rating, Ragweed", "setting": "[4]; [28]", "value": 30}, {"measurement": "Plant response rating, Oat, Wild", "setting": "[5]; [29]", "value": 0}, {"measurement": "Plant response rating, Oat, Wild", "setting": "[5]; 125 g ai/ha, 0 to 100 scale", "value": 0}, {"measurement": "Plant response rating, Soybean", "setting": "soybean (Glycine max) [6]; [27]", "value": 0}, {"measurement": "Plant response rating, Soybean", "setting": "soybean (Glycine max) [6]; [28]", "value": 0}, {"measurement": "Plant response rating, Corn", "setting": "corn (Zea mays) [7]; [29]", "value": 0}, {"measurement": "Plant response rating, Corn", "setting": "corn (Zea mays) [7]; 125 g ai/ha, 0 to 100 scale", "value": 0}, {"measurement": "Plant response rating, Pigweed, Palmer", "setting": "[8]; [27]", "value": 40}, {"measurement": "Plant response rating, Pigweed, Palmer", "setting": "[8]; [28]", "value": 90}, {"measurement": "Plant response rating, Ragweed", "setting": "[9]; [29]", "value": 70}, {"measurement": "Plant response rating, Ragweed", "setting": "[9]; 125 g ai/ha, 0 to 100 scale", "value": 80}, {"measurement": "Plant response rating, Soybean", "setting": "soybean (Glycine max) [10]; [29]", "value": 20}, {"measurement": "Plant response rating, Soybean", "setting": "soybean (Glycine max) [10]; 125 g ai/ha, 0 to 100 scale", "value": 30}, {"measurement": "Plant response rating, Ducksalad (0 to 100 scale, 0 is no effect, 100 is complete control)", "setting": "[11]", "value": 0}, {"measurement": "Plant response rating, Foxtail, Giant", "setting": "[12]; [27]", "value": 40}, {"measurement": "Plant response rating, Foxtail, Giant", "setting": "[12]; [28]", "value": 80}, {"measurement": "Plant response rating, Wheat", "setting": "[13]; [27]", "value": 0}, {"measurement": "Plant response rating, Wheat", "setting": "[13]; [28]", "value": 50}, {"measurement": "Plant response rating, Ryegrass, Italian", "setting": "[14]; [29]", "value": 0}, {"measurement": "Plant response rating, Ryegrass, Italian", "setting": "[14]; 125 g ai/ha, 0 to 100 scale", "value": 40}, {"measurement": "Plant response rating, Rice (0 to 100 scale, 0 is no effect, 100 is complete control)", "setting": "rice (Oryza sativa)", "value": 0}, {"measurement": "Plant response rating, Barnyardgrass (0 to 100 scale, 0 is no effect, 100 is complete control)", "setting": "[15]", "value": 55}, {"measurement": "Plant response rating, Blackgrass", "setting": "[16]; 31 g ai/ha, 10 days", "value": 20}, {"measurement": "Plant response rating, Blackgrass", "setting": "[16]; 125 g ai/ha", "value": 50}, {"measurement": "Plant response rating, Ryegrass, Italian", "setting": "[17]; [27]", "value": 60}, {"measurement": "Plant response rating, Ryegrass, Italian", "setting": "[17]; [28]", "value": 90}, {"measurement": "Plant response rating, Goosegrass", "setting": "[18]; [29]", "value": 20}, {"measurement": "Plant response rating, Goosegrass", "setting": "[18]; 125 g ai/ha, 0 to 100 scale", "value": 50}, {"measurement": "Plant response rating, Wheat", "setting": "[19]; [29]", "value": 0}, {"measurement": "Plant response rating, Wheat", "setting": "[19]; 125 g ai/ha, 0 to 100 scale", "value": 30}, {"measurement": "Plant response rating, Oat, Wild", "setting": "[20]; [27]", "value": 0}, {"measurement": "Plant response rating, Oat, Wild", "setting": "[20]; [28]", "value": 30}, {"measurement": "Plant response rating, Kochia", "setting": "kochia (Bassia scoparia) [21]; [29]", "value": 10}, {"measurement": "Plant response rating, Kochia", "setting": "kochia (Bassia scoparia) [21]; 125 g ai/ha, 0 to 100 scale", "value": 30}, {"measurement": "Plant response rating, Pigweed, Palmer", "setting": "[22]; [29]", "value": 0}, {"measurement": "Plant response rating, Pigweed, Palmer", "setting": "[22]; 125 g ai/ha, 0 to 100 scale", "value": 50}, {"measurement": "Plant response rating, Foxtail, Giant", "setting": "[23]; [29]", "value": 0}, {"measurement": "Plant response rating, Foxtail, Giant", "setting": "[23]; 125 g ai/ha, 0 to 100 scale", "value": 40}, {"measurement": "Plant response rating, Goosegrass", "setting": "[24]; [27]", "value": 0}, {"measurement": "Plant response rating, Goosegrass", "setting": "[24]; [28]", "value": 90}, {"measurement": "Plant response rating, Horseweed", "setting": "[25]; [29]", "value": 0}, {"measurement": "Plant response rating, Horseweed", "setting": "[25]; 125 g ai/ha, 0 to 100 scale", "value": 40}, {"measurement": "Plant response rating, Galium", "setting": "[26]; [29]", "value": 40}, {"measurement": "Plant response rating, Galium", "setting": "[26]; 125 g ai/ha, 0 to 100 scale", "value": 70}]}
